Test results from patent publication US4728734A, “C-3'thioiminosulfonyl cephalosporin analogs” (American Home Products Corporation, priority 1985, dated 1988).
In brackets after ≈: the same amount, converted by molar mass. Structures can show the parent of a compound that is named as a salt.

How the values were obtained:
Assay type in all cases: cell-based
[1] = tested on: Enterobacter cloacae ATCC 13047; assay: Antibacterial activity, agar dilution MIC, Enterobacter cloacae ATCC 13047; conditions: ATCC13047, 18 hours at 35° C.
Procedure: (§1) The compounds of the invention are tested for their antibacterial activity. The test is carried out as follows:
(§2) The organisms used in the test comprise the following:
(§3) Staphylococcus aureus (penicillin-sensitive and resistant), Pseudomonas aeruginosa, Escherichia coli, […] pneumoniae, Bordetella bronchiseptica, Proteus vulgaris, P. mirabilis, Acinetobacter calcoaceticus.
(§4) Test organisms may be added or deleted in order to reflect current clinical patterns of antibiotic susceptibility or shifts in pathogenic potential.
(§5) Organisms are normally grown for 18 hours in Brain Heart Infusion at 35° C. Cultures are adjusted with saline to MacFarland No. 1.5 standard prior to use.
(§6) Stock concentrations (e.g. 2,5000 μg or units per ml) are prepared in a suitable vehicle. Two-fold dilutions are made. One ml quantities of each dilution are incorporated in 9 ml of the appropriate agar (e.g. Seed) in sterile Petri plates. The hardened surface is inoculated with test organisms by use of a Steers replicating device. The plates are incubated (e.g. 18 hours at 35° C.) and activity is determined.

[2] = tested on: Escherichia coli ATCC 25922; assay: Antibacterial activity, agar dilution MIC, Escherichia coli ATCC 25922; conditions: ATCC25922, 18 hours at 35° C.
Procedure: as §1, §2, §3, §4, §5, §6

[3] = tested on: Streptococcus faecalis ATCC 29212; assay: Antibacterial activity, agar dilution MIC, Streptococcus faecalis ATCC 29212; conditions: Enterococcus faecalis, ATCC29212, 18 hours at 35° C.
Procedure: as §1, §2, §3, §4, §5, §6

[4] = tested on: Klebsiella pneunomiae KL-1; assay: Antibacterial activity, agar dilution MIC, Klebsiella pneunomiae KL-1; conditions: KL1, 18 hours at 35° C.
Procedure: as §1, §2, §3, §4, §5, §6

[5] = tested on: Proteus vulgaris A 84354 1; assay: Antibacterial activity, agar dilution MIC, Proteus vulgaris A 84354 1; conditions: A843541, 18 hours at 35° C.
Procedure: as §1, §2, §3, §4, §5, §6

[6] = tested on: Pseudomonas aeruginosa ATCC 27853; assay: Antibacterial activity, agar dilution MIC, Pseudomonas aeruginosa ATCC 27853; conditions: ATCC27853, 18 hours at 35° C.
Procedure: as §1, §2, §3, §4, §5, §6

[7] = tested on: Staphylococcus aureus ATCC 29213; assay: Antibacterial activity, agar dilution MIC, Staphylococcus aureus ATCC 29213; conditions: ATCC29213, 18 hours at 35° C.
Procedure: as §1, §2, §3, §4, §5, §6

[8] = tested on: Serratia marcescens ATCC 13880; assay: Antibacterial activity, agar dilution MIC, Serratia marcescens ATCC 13880; conditions: ATCC13880, 18 hours at 35° C.
Procedure: as §1, §2, §3, §4, §5, §6

| SMILES | MIC [1] [µg/mL] | MIC [2] [µg/mL] | MIC [3] [µg/mL] | MIC [4] [µg/mL] | MIC [5] [µg/mL] | MIC [6] [µg/mL] | MIC [7] [µg/mL] | MIC [8] [µg/mL] |
| --- | --- | --- | --- | --- | --- | --- | --- | --- |
| CO/N=C(\C(=O)N[C@@H]1C(=O)N2C(C(=O)OC(C)(C)C)=C(CSC3=NS(=O)(=O)c4cscc43)CS[C@H]12)c1csc(N)n1 [Example 1 B., (6R,7R)-7[[(2-Amino-4-thiazolyl)(methoxyimino)acetyl]amino]-8-oxo-3-[(thieno[3,4-d]isothiazol-3-ylthio)methyl]-5-thia-1-azabicyclo[4.2.0]oct-2-ene-2-carboxylic acid 1,1-dimethylethyl ester S^3,S^3-dioxide] | > 256 | 8 (≈ 12.2 µM) | > 256 | 2 (≈ 3.04 µM) | 2 (≈ 3.04 µM) | > 256 | 128 (≈ 195 µM) | 32 (≈ 48.7 µM) |
| CO/N=C(\C(=O)N[C@@H]1C(=O)N2C(C(=O)O)=C(CSC3=NS(=O)(=O)c4cscc43)CS[C@H]12)c1csc(N)n1 [Example 1 C., (6R,7R)-7-[[(2-Amino-4-thiazolyl)(methoxyimino)acetyl]amino]-8-oxo-3-[(thieno-[3,4-d]isothiazol-3-ylthio)methyl]-5-thia-1-azabicyclo[4.2.0]oct-2-ene-2-carboxylic acid S^3,S^3-dioxide, trifluoroacetate salt] | 32 | 2 | 256 | < 1 | < 1 | > 256 | 32 | 2 |
